# Test results from patent US8940896B2, “Tetra-cyclic carboline derivatives useful in the inhibition of angiogenesis” (PTC Therapeutics, Inc., priority 2004, dated 2015).
# Test system: VEGF
# Test: Hypoxia-inducible endogenous VEGF expression, VEGF ELISA assay
# Type: cell-based
# Details: HeLa cells, hypoxic conditions (1% O2, 5% CO2), VEGF in conditioned media
# Method: The ability of the compounds of the invention to modulate hypoxia-inducible endogenous VEGF expression may be analyzed as follows. VEGF protein levels may be monitored by an ELISA assay (R&D Systems). Briefly, HeLa cells may be cultured for 24-48 hours under hypoxic conditions (1% O2, 5% CO2, balanced with nitrogen) in the presence or absence of a compound of the invention. The conditioned media may then be assayed by ELISA, and the concentration of VEGF calculated from the standard ELISA curve of each assay.
# A dose-response analysis may be performed using the ELISA assay and conditions described above. The conditions for the dose-response ELISA are analogous to those described above. A series of, e.g., seven different concentrations may be analyzed. In parallel, a dose-response cytotoxicity assay may be performed using CellTiter Glo (Promega) under the same conditions as the ELISA to ensure that the inhibition of VEGF expression was not due to the cytotoxicity. Dose-response curves may be plotted using percentage inhibition versus concentration of the compound, and EC50 and CC50 values may be generated for each compound with the maximal inhibition set as 100% and the minimal inhibition as 0%.
row,SMILES,EC50
1,O=C1C2Cc3c([nH]c4ccccc34)C(C3CCCCC3)N2C(=S)N1C1CCCCC1 (stereo not shown) [Compound 1],> 1000 nM
2,COc1cccc(C2c3[nH]c4ccc(Br)cc4c3CC3C(=O)N(C4CC4)C(=S)N32)c1 (stereo not shown) [Compound 16],< 8 nM
3,O=C1C2Cc3c([nH]c4ccccc34)C(C3CCCCC3)N2C(=S)N1C1CC1 (stereo not shown) [Compound 5],> 1000 nM
4,COCCOc1ccc(C2c3[nH]c4ccc(Br)cc4c3CC3C(=O)N(C4CCCCC4)C(=S)N32)cc1 (stereo not shown) [Compound 117],< 8 nM
5,COc1ccc(C2c3[nH]c4ccc(Br)cc4c3CC3C(=O)N(C4CCCCC4)C(=S)N32)cc1 (stereo not shown) [Compound 187],> 1000 nM
6,COc1ccc(C2c3[nH]c4ccccc4c3CC3C(=O)N(C4CCCCC4)C(=S)N32)cc1 (stereo not shown) [Compound 41],200 to 1000 nM

# Same assay, conditions: Homo sapiens, HeLa, HeLa cells, hypoxic conditions (1% O2, 5% CO2), VEGF in conditioned media
row,SMILES,EC50
1,COc1ccc(C2c3[nH]c4ccc(Br)cc4c3CC3C(=O)N(c4ccc(Cl)cc4)C(=S)N32)cc1 (stereo not shown) [Compound 138],< 8 nM
2,O=C1C2Cc3c([nH]c4ccc(Br)cc34)C(c3ccc(OCCCn4ccnn4)cc3)N2C(=S)N1c1ccc(Cl)cc1 (stereo not shown) [Compound 149],< 8 nM
3,COc1ccccc1C1c2[nH]c3ccccc3c2CC2C(=O)N(c3cccc(F)c3)C(=S)N21 (stereo not shown) [Compound 92],> 1000 nM
4,COc1ccc(C2c3[nH]c4ccc(Br)cc4c3CC3C(=O)N(c4cccc(OC(C)=O)c4)C(=S)N32)cc1 (stereo not shown) [Compound 182],< 8 nM
5,COc1ccc(C2c3[nH]c4ccc(Br)cc4c3CC3C(=O)N(c4ccc(F)cc4Cl)C(=S)N32)cc1 (stereo not shown) [Compound 174],40 to 200 nM
6,CCC(C)N1C(=O)C2Cc3c([nH]c4ccc(Br)cc34)C(c3ccc(C(C)C)cc3)N2C1=S (stereo not shown) [Compound 95],< 8 nM
7,COc1cc(C2c3[nH]c4ccccc4c3CC3C(=O)N(C)C(=S)N32)cc(OC)c1O (stereo not shown) [Compound 71],> 1000 nM
8,CC(C)N1C(=O)C2Cc3c([nH]c4ccc(Cl)cc34)C(c3ccc(-c4ccncc4)cc3)N2C1=O (stereo not shown) [Compound 125],200 to 1000 nM
9,COc1ccccc1C1c2[nH]c3ccccc3c2CC2C(=O)N(C)C(=S)N21 (stereo not shown) [Compound 76],> 1000 nM
10,COCCOc1ccc(C2c3[nH]c4ccc(Br)cc4c3CC3C(=O)N(C4CCCCC4)C(=S)N32)cc1 (stereo not shown) [Compound 111],< 8 nM
11,COc1ccc(C2c3[nH]c4ccccc4c3CC3C(=O)N(C4CCCC4)C(=S)N32)cc1 (stereo not shown) [Compound 13],40 to 200 nM
12,COCCOc1ccc(C2c3[nH]c4ccc(Cl)cc4c3CC3C(=O)N(C(C)C)C(=S)N32)cc1 (stereo not shown) [Compound 108],8 to 40 nM
13,O=C1C2Cc3c([nH]c4ccc(Br)cc34)C(c3ccc(OCCCN4CCOCC4)cc3)N2C(=S)N1c1ccc(Cl)cc1 (stereo not shown) [Compound 192],< 8 nM
14,COc1ccc(C2c3[nH]c4ccc(Br)cc4c3CC3C(=O)N(Cc4ccco4)C(=S)N32)cc1 (stereo not shown) [Compound 180],< 8 nM
15,COc1ccc(C2c3[nH]c4ccc(Br)cc4c3CC3C(=O)N(c4ccc(F)cc4F)C(=S)N32)cc1 (stereo not shown) [Compound 172],< 8 nM
16,CC(C)N1C(=O)C2Cc3c([nH]c4ccc(Cl)cc34)C(c3ccc(-n4ccnc4)cc3)N2C1=S (stereo not shown) [Compound 132],40 to 200 nM
17,O=C1C2Cc3c([nH]c4ccccc34)C(c3ccc(F)cc3)N2C(=S)N1C1CCCCC1 (stereo not shown) [Compound 4],> 1000 nM
18,O=C1C2Cc3c([nH]c4ccc(Br)cc34)C(c3ccc(OCCCN4CCSCC4)cc3)N2C(=S)N1c1ccc(Cl)cc1 (stereo not shown) [Compound 196],< 8 nM
19,O=C1C2Cc3c([nH]c4ccc(Br)cc34)C(c3ccc(OCCN4CCOCC4)cc3)N2C(=S)N1C1CCCCC1 (stereo not shown) [Compound 115],< 8 nM
20,COc1ccc(C2c3[nH]c4ccccc4c3CC3C(=O)N(c4ccc(C)cc4)C(=S)N32)cc1 (stereo not shown) [Compound 46],> 1000 nM
21,COc1ccc(C2c3[nH]c4ccccc4c3CC3C(=O)N(C4CCCCC4)C(=S)N32)cc1 (stereo not shown) [Compound 40],200 to 1000 nM

row,SMILES,EC50
1,COCCN1C(=O)C2Cc3c([nH]c4ccccc34)C(c3ccc(OC)cc3)N2C1=S (stereo not shown) [Compound 59],> 1000 nM
2,COc1ccc(C2c3[nH]c4ccc(Br)cc4c3CC3C(=O)N(c4ccc(OC(C)=O)cc4)C(=S)N32)cc1 (stereo not shown) [Compound 141],< 8 nM
3,COc1cccc(C2c3[nH]c4ccccc4c3CC3C(=O)N(C4CC4)C(=S)N32)c1 (stereo not shown) [Compound 6],> 1000 nM
4,CCN(CC)CCCOc1ccc(C2c3[nH]c4ccc(Br)cc4c3CC3C(=O)N(C(C)C)C(=S)N32)cc1 (stereo not shown) [Compound 154],< 8 nM
5,COC(=O)N1C(=O)C2Cc3c([nH]c4ccc(Br)cc34)C(c3ccc(OC)cc3)N2C1=S (stereo not shown) [Compound 147],40 to 200 nM
6,COc1ccc(C2c3[nH]c4ccc(Br)cc4c3CC3C(=O)N(c4cccc(F)c4)C(=S)N32)cc1 (stereo not shown) [Compound 167],< 8 nM
7,COc1ccc(C2c3[nH]c4ccc(Br)cc4c3CC3C(=O)N(c4cccc(Br)c4)C(=S)N32)cc1 (stereo not shown) [Compound 175],< 8 nM
8,CC(C)N1C(=O)C2Cc3c([nH]c4ccc(Br)cc34)C(c3ccc(OCCCN4CCSCC4)cc3)N2C1=S (stereo not shown) [Compound 157],40 to 200 nM
9,COc1ccc(C2c3[nH]c4ccccc4c3CC3C(=O)N(c4ccccc4)C(=O)N32)cc1 (stereo not shown) [Compound 50],> 1000 nM
10,COc1ccccc1C1c2[nH]c3ccccc3c2CC2C(=O)N(CCc3ccccc3)C(=S)N21 (stereo not shown) [Compound 94],> 1000 nM
11,COC(=O)CN1C(=O)C2Cc3c([nH]c4ccc(Br)cc34)C(c3ccc(OC)cc3)N2C1=S (stereo not shown) [Compound 136],40 to 200 nM
12,CCN1C(=O)C2Cc3c([nH]c4ccccc34)C(c3cc(OC)c(OC)c(OC)c3)N2C1=S (stereo not shown) [Compound 64],> 1000 nM
13,CC(C)N1C(=O)C2Cc3c([nH]c4ccc(Br)cc34)C(c3ccc(N4CCOCC4)cc3)N2C1=O (stereo not shown) [Compound 118],40 to 200 nM
14,COc1ccc(C2c3[nH]c4ccccc4c3CC3C(=O)N(c4cccc(F)c4)C(=S)N32)cc1 (stereo not shown) [Compound 43],200 to 1000 nM
15,O=C1C2Cc3c([nH]c4ccc(Br)cc34)C(c3ccc(F)cc3)N2C(=S)N1C1CCCCC1 (stereo not shown) [Compound 10],8 to 40 nM
16,CC(C)N1C(=O)C2Cc3c([nH]c4ccc(Cl)cc34)C(c3ccc(N4CCN(C)CC4)cc3)N2C1=S (stereo not shown) [Compound 133],40 to 200 nM
17,COc1ccc(C2c3[nH]c4ccc(Br)cc4c3CC3C(=O)N(c4ccc(F)cc4)C(=S)N32)cc1 (stereo not shown) [Compound 168],< 8 nM
18,COc1ccc(C2c3[nH]c4ccc(Br)cc4c3CC3C(=O)N(c4ccc(C)cc4)C(=S)N32)cc1 (stereo not shown) [Compound 171],< 8 nM
19,COc1ccccc1C1c2[nH]c3ccccc3c2CC2C(=O)N(c3cccc(C)c3)C(=S)N21 (stereo not shown) [Compound 90],> 1000 nM
20,CC(C)NCCCOc1ccc(C2c3[nH]c4ccc(Br)cc4c3CC3C(=O)N(C(C)C)C(=S)N32)cc1 (stereo not shown) [Compound 155],< 8 nM
21,COc1ccc(C2c3[nH]c4ccc(Br)cc4c3CC3C(=O)N(c4ccccc4Cl)C(=S)N32)cc1 (stereo not shown) [Compound 164],40 to 200 nM

row,SMILES,EC50
1,CC(C)N1C(=O)C2Cc3c([nH]c4ccc(Br)cc34)C(c3ccc(OCCCN4CCN(C)CC4)cc3)N2C1=S (stereo not shown) [Compound 159],< 8 nM
2,O=C1C2Cc3c([nH]c4ccc(Br)cc34)C(c3ccc(OCCCN4CCCCC4)cc3)N2C(=S)N1c1ccc(Cl)cc1 (stereo not shown) [Compound 190],8 to 40 nM
3,CCN(CC)CCCOc1ccc(C2c3[nH]c4ccc(Br)cc4c3CC3C(=O)N(c4ccc(Cl)cc4)C(=S)N32)cc1 (stereo not shown) [Compound 193],8 to 40 nM
4,C=CCN1C(=O)C2Cc3c([nH]c4ccccc34)C(c3ccc(O)cc3)N2C1=S (stereo not shown) [Compound 77],> 1000 nM
5,COc1ccc(C2c3[nH]c4ccccc4c3CC3C(=O)N(c4ccccc4C(C)C)C(=S)N32)cc1 (stereo not shown) [Compound 74],> 1000 nM
6,CN1C(=O)C2Cc3c([nH]c4ccccc34)C(c3ccc(F)cc3)N2C1=S (stereo not shown) [Compound 63],> 1000 nM
7,CC(C)N1C(=O)C2Cc3c([nH]c4ccc(Br)cc34)C(c3ccc(-c4cncnc4)cc3)N2C1=O (stereo not shown) [Compound 121],40 to 200 nM
8,CC(C)N1C(=O)C2Cc3c([nH]c4ccc(Cl)cc34)C(c3ccc(-c4ccncc4)cc3)N2C1=S (stereo not shown) [Compound 134],8 to 40 nM
9,COc1ccc(C2c3[nH]c4ccccc4c3CC3C(=O)N(C(C)(C)C)C(=S)N32)cc1 (stereo not shown) [Compound 70],> 1000 nM
10,COCCCN1C(=O)C2Cc3c([nH]c4ccc(Cl)cc34)C(c3ccc(OCCOC)cc3)N2C1=S (stereo not shown) [Compound 110],8 to 40 nM
11,CN1C(=O)C2Cc3c([nH]c4ccccc34)C(c3cccc(Cl)c3)N2C1=S (stereo not shown) [Compound 58],> 1000 nM
12,O=C1C2Cc3c([nH]c4ccccc34)C(c3cccc(Cl)c3)N2C(=S)N1c1cccc(F)c1 (stereo not shown) [Compound 39],200 to 1000 nM
13,COc1ccc(C2c3[nH]c4ccc(Br)cc4c3CC3C(=O)N(c4ccc(C(=O)O)cc4)C(=S)N32)cc1 (stereo not shown) [Compound 200],8 to 40 nM
14,COCCCN1C(=O)C2Cc3c([nH]c4ccc(Br)cc34)C(c3ccc(OCCN4CCOCC4)cc3)N2C1=S (stereo not shown) [Compound 105],8 to 40 nM
15,COc1ccccc1C1c2[nH]c3ccccc3c2CC2C(=O)N(C3CCCCC3)C(=S)N21 (stereo not shown) [Compound 87],> 1000 nM
16,COc1ccc(C2c3[nH]c4ccc(Br)cc4c3CC3C(=O)N(c4ccc(Cl)c(C(F)(F)F)c4)C(=S)N32)cc1 (stereo not shown) [Compound 173],< 8 nM
17,COc1cccc(C2c3[nH]c4ccc(Br)cc4c3CC3C(=O)N(C4CCCCC4)C(=S)N32)c1 (stereo not shown) [Compound 28],8 to 40 nM
18,COc1ccc(C2c3[nH]c4ccc(Br)cc4c3CC3C(=O)N(Cc4ccc(Cl)cc4)C(=S)N32)cc1 (stereo not shown) [Compound 201],< 8 nM
19,COc1ccc(C2c3[nH]c4ccc(Br)cc4c3CC3C(=O)N(c4cccc(C)c4)C(=S)N32)cc1 (stereo not shown) [Compound 170],< 8 nM
